Measurements published in patent US20130040983A1, “RAF KINASE INHIBITORS” (priority 2010, published 2013).
Where two headings read alike, the source gives them in different places.

Legend:
[1] = target: wild-type B-RAF (Homo sapiens, UniProt P15056); test: In vitro assay for inhibition of B-RAF kinase (recombinant wild-type B-RAF, MEK (K97R) substrate); assay type: biochemical; conditions: 10 nM recombinant wild-type B-RAF, 1 μM MEK (K97R) substrate; read-out: BRAF IC50
Method: (§1) The ability of compounds described herein to inhibit RAF kinase activity was determined from biochemical kinase assays using recombinant RAF proteins as known in the art.
(§2) Solutions of varying concentrations of test compounds or vehicle were added to 10 nM recombinant wild-type A-RAF, wild-type B-RAF, or wild-type C-RAF proteins incubated in the presence of different concentrations of ATP and 1 μM MEK (K97R) as substrate, as previously described (Wilhelm, S. M., et al., Cancer Res., 64: 7099-7109, 2004; Mason, C. S., et al., EMBO J. 18: 2137-2148, 1999; Marais, R., et al., J. Biol. Chem., 272: 4378-4383, 1997). At least triplicate determinations for each individual test compound concentration were made and data plotted as mean±standard deviation relative to the control vehicle.
as §2, with “B-RAF” for “A-RAF, wild-type B-RAF,”, “V600E mutated B-RAF” for “wild-type C-RAF”

[2] = target: V600E mutated B-RAF (Homo sapiens, UniProt P15056, V600E); test: In vitro assay for inhibition of mutant B-RAF kinase (recombinant V600E B-RAF, MEK (K97R) substrate); assay type: biochemical; conditions: 10 nM recombinant V600E B-RAF, 1 μM MEK (K97R) substrate
Sequence of V600E mutated B-RAF (P15056 whole entry V600E): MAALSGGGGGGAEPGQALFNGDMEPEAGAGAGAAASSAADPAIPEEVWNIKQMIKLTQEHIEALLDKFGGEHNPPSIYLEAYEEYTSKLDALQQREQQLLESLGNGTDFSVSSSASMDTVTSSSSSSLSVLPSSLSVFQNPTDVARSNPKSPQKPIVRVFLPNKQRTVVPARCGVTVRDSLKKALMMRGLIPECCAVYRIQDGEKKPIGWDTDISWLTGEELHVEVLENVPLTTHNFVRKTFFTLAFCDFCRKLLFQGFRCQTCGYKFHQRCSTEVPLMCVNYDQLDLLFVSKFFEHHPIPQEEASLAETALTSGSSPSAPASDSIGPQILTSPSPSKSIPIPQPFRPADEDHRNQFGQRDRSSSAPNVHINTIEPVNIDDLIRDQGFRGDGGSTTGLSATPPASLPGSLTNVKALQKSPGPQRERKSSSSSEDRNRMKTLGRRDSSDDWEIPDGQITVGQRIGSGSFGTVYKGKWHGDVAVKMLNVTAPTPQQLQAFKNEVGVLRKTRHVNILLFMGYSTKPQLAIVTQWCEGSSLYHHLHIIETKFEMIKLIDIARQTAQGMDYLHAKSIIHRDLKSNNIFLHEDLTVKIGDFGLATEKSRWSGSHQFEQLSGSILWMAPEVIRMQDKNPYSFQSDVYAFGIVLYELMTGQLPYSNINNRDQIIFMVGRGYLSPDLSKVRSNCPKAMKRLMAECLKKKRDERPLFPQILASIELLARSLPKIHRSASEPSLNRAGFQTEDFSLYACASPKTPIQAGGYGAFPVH
Method: as §1
as §2, with “B-RAF” for “A-RAF, wild-type B-RAF,”, “V600E mutated B-RAF” for “wild-type C-RAF”

[3] = class symbols, read-out: IC50 (μM) V600E B-Raf

Sequence of wild-type B-RAF (P15056 whole entry): as the sequence (P15056 whole entry V600E) above, with E600V counted along it

IC50 [1] [µM] | IC50 [2, 3] [µM] | IC50 ([2]; read-out: BRAF-V600E IC50) [µM] | Compound
3.1 | 0.1 to 1 | 0.13 | O=C(O)c1cccc(-c2[nH]c(-c3ccccc3)nc2-c2ccncc2)c1 [Example 1, 3-(2-phenyl-4-(pyridin-4-yl)-1H-imidazol-5-yl)benzoic acid]
0.8 | – | – | CS(=O)(=O)Nc1cccc(-c2[nH]c(-c3ccccc3)nc2-c2ccncc2)c1 [Example 2, N-(3-(2-phenyl-4-(pyridin-4-yl)-1H-imidazol-5-yl)phenyl)methanesulfonamide]
– | 0.1 to 1 | – | O=C(O)c1cccc(-c2cn(-c3ccccc3)nc2-c2ccncc2)c1 [Example 3, 3-(1-phenyl-3-(pyridin-4-yl)-1H-pyrazol-4-yl)benzoic acid]
– | 1 to 10 | – | CCS(=O)(=O)Nc1cccc(-c2[nH]c(-c3ccccc3)nc2-c2ccncc2)c1 [Example 4, N-(3-(2-phenyl-4-(pyridin-4-yl)-1H-imidazol-5-yl)phenyl)ethanesulfonamide]
– | 1 to 10 | – | CCCS(=O)(=O)Nc1cccc(-c2[nH]c(-c3ccccc3)nc2-c2ccncc2)c1 [Example 5, N-(3-(2-phenyl-4-(pyridin-4-yl)-1H-imidazol-5-yl)phenyl)propane-1-sulfonamide]
– | 0.1 to 1 | – | O=C(O)c1cc(F)cc(-c2[nH]c(-c3ccccc3)nc2-c2ccncc2)c1 [Example 6, 3-fluoro-5-(2-phenyl-4-(pyridin-4-yl)-1H-imidazol-5-yl)benzoic acid]
– | 0.1 to 1 | – | O=C(O)c1cc(-c2[nH]c(-c3ccccc3)nc2-c2ccncc2)ccc1F [Example 7, 2-fluoro-5-(2-phenyl-4-(pyridin-4-yl)-1H-imidazol-5-yl)benzoic acid]
– | 0.1 to 1 | – | O=C(O)c1cccc(-c2[nH]c(-c3ccccc3)nc2-c2ccncc2)c1F [Example 8, 2-fluoro-3-(2-phenyl-4-(pyridin-4-yl)-1H-imidazol-5-yl)benzoic acid]
– | 1 to 10 | – | O=C(O)c1ccc(F)c(-c2[nH]c(-c3ccccc3)nc2-c2ccncc2)c1 [Example 9, 4-fluoro-3-(2-phenyl-4-(pyridin-4-yl)-1H-imidazol-5-yl)benzoic acid]
– | < 0.1 | – | O=C(O)c1cc(-c2[nH]c(-c3ccccc3)nc2-c2ccncc2)ccc1Cl [Example 10, 2-chloro-5-(2-phenyl-4-(pyridin-4-yl)-1H-imidazol-5-yl)benzoic acid]
– | 0.1 to 1 | – | CS(=O)(=O)Nc1cc(-c2[nH]c(-c3ccccc3)nc2-c2ccncc2)ccc1Cl [Example 12, N-(2-chloro-5-(2-phenyl-4-(pyridin-4-yl)-1H-imidazol-5-yl)phenyl)methanesulfonamide]
– | 0.1 to 1 | – | O=C(O)c1cccc(-c2nn(-c3ccccc3)cc2-c2ccncc2)c1 [Example 13, 3-(1-phenyl-4-(pyridin-4-yl)-1H-pyrazol-3-yl)benzoic acid]
– | 0.1 to 1 | – | O=C(O)c1cc(Cl)cc(-c2[nH]c(-c3ccccc3)nc2-c2ccncc2)c1 [Example 14, 3-chloro-5-(2-phenyl-4-(pyridin-4-yl)-1H-imidazol-5-yl)benzoic acid]
– | < 0.1 | – | O=C(O)c1cc(-c2cn(-c3ccccc3)nc2-c2ccncc2)ccc1Cl [Example 15, 2-chloro-5-(1-phenyl-3-(pyridin-4-yl)-1H-pyrazol-4-yl)benzoic acid]
– | 1 to 10 | – | NC(=O)c1cccc(-c2[nH]c(-c3ccccc3)nc2-c2ccncc2)c1 [Example 21, 3-(2-phenyl-4-(pyridin-4-yl)-1H-imidazol-5-yl)benzamide]
– | 0.1 to 1 | – | Cc1ccc(-c2[nH]c(-c3ccccc3)nc2-c2ccncc2)cc1C(=O)O [Example 27, 2-methyl-5-(2-phenyl-4-(pyridin-4-yl)-1H-imidazol-5-yl)benzoic acid]
